# Assay results: US11439658B2, “Compositions and methods for suppressing MSUT2” (United States Government As Represented By The Department …, priority 2018, dated 2022)
# T1: recombinant GST-MSUT2 binding to synthetic poly(A) RNA (Homo sapiens, UniProt Q6PJT7)
# T1 construct: fused on or other part: GST at the N-terminus (pGEX6P-1 vector)
# T1 sequence (Q6PJT7 595-719 limits assumed): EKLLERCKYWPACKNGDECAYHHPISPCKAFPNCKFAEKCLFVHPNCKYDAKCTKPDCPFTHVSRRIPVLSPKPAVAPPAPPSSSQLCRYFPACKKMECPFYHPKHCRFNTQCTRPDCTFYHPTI
# B1: PABPN1: recombinant polyadenylate-binding nuclear protein 1 (protein, UniProt Q86U42 2-306, looked up)
# Polyadenylate-binding protein …: AAAAAAAAAAGAAGGRGSGPGRRRHLVPGAGGEAGEGAPGGAGDYGNGLESEELEPEELLLEPEPEPEPEEEPPRPRAPPGAPGPGPGSGAPGSQEEEEEPGLVEGDPGDGAIEDPELEAIKARVREMEEEAEKLKELQNEVEKQMNMSPPPGNAGPVIMSIEEKMEADARSIYVGNVDYGATAEELEAHFHGCGSVNRVTILCDKFSGHPKGFAYIEFSDKESVRTSLALDESLFRGRQIKVIPKRTNRPGISTTDRGFPRARYRARTTNYNSSRSRFYSGFNSRPRGRVYRGRARATSWYSPY
# B2: MSUT2: recombinant mammalian suppressor of tauopathy 2, poly(A) RNA binding protein (protein)
# chain: MEIGTEISRKIRSAIKGKLQELGAYVDEELPDYIMVMVANKKSQDQMTEDLSLFLGNNTIRFTVWLHGVLDKLRSVTTEPSSLKSSDTNIFDSNVPSNKSNFSRGDERRHEAAVPPLAIPSARPEKRDSRVSTSSQESKTTNVRQTYDDGAATRLMSTVKPLREPAPSEDVIDIKPEPDDLIDEDLNFVQENPLSQKKPTVTLTYGSSRPSIEIYRPPASRNADSGVHLNRLQFQQQQNSIHAAKQLDMQSSWVYETGRLCEPEVLNSLEETYSPFFRNNSEKMSMEDENFRKRKLPVVSSVVKVKKFNHDGEEEEEDDDYGSRTGSISSSVSVPAKPERRPSLPPSKQANKNLILKAISEAQESVTKTTNYSTVPQKQTLPVAPRTRTSQEELLAEVVQGQSRTPRISPPIKEEETKGDSVEKNQGTQQRQLLSRLQIDPVMAETLQMSQDYYDMESMVHADTRSFILKKPKLSEEVVVAPNQESGMKTADSLRVLSGHLMQTRDLVQPDKPASPKFIVTLDGVPSPPGYMSDQEEDMCFEGMKPVNQTAASNKGLRGLLHPQQLHLLSRQLEDPNGSFSNAEMSELSVAQKPEKLLERCKYWPACKNGDECAYHHPISPCKAFPNCKFAEKCLFVHPNCKYDAKCTKPDCPFTHVSRRIPVLSPKPAVAPPAPPSSSQLCRYFPACKKMECPFYHPKHCRFNTQCTRPDCTFYHPTINVPPRHALKWIRPQTSE
# Experiments:
# [1] = molecular target: T1, recombinant GST-MSUT2 binding to synthetic poly(A) RNA; test: MSUT2/poly(A) RNA AlphaScreen assay; conditions: dose validated hits of pilot AlphaScreen
# Procedure: To identify small-molecule inhibitors of the MSUT2 protein/poly(A) RNA interaction, a high-throughput AlphaScreen assay optimized for detecting recombinant GST-MSUT2 binding to synthetic poly(A) RNA. The MSUT2 AlphaScreen assay has been well optimized during its development for 384-well screening (z-score=0.96). Two high throughput AlphaScreens of 53,400 distinct small molecules have been completed. A multi-point dose analysis pilot screen of the Spectrum Collection was performed. […] Both the pilot screen and the screening approaches disclosed herein use the Quellos High-Throughput Screening Core at the University of Washington (UW).
# Assay of inhibitor dose dependence. Hits identified in the pilot screen were validated by retesting resynthesized compounds over a wide concentration range. […] These hits will be validated by conducting a 14-point dose-response analysis with a drug concentration range from 100 μM down to 1.4 nM; the MSUT2/poly(A) RNA AlphaScreen Assay will be used to produce a readout. From this dose-response analysis, IC50 values will be calculated for dose-responsive hits. For the full scale screen 64 primary hits were identified and will be subject to dose validation as described for pilot screen compounds (and Ebselen, shown in FIG. 20).
# The steps and set up for performing the ALPHA assay for MSUT2 binding to polyA are as follows: • 1. Dilutions are in assay buffer (1×PAMA final concentration). • 2. Scale is for 96 well assay in PE […] ½ area plate (total volume/well is 50 μL). • 3. Assays set up in low light conditions • 4. Add 20 μL of diluted donor bead (10 ug/mL) to well bringing well volume to 20 μL • 5. Add 10 μL diluted biotin RNA (15 nM)) bringing well volume to 30 μL • 6. Add 10 μL diluted GST-MSUT2 Protein (125 nM)) bringing well volume to 40 μL • 7. Incubate at room temp for 30 minutes in the dark • 8. Add 10 μl of diluted Acceptor bead (2.5 μg/mL) to well bringing well volume to 50 • 9. Incubate at room temp for 60 minutes in the dark • 10. Read Plate using standard AlphaAssay settings on Perkin Elmer EnSpire® Alpha microplate reader
# [2] = test system: wild type or MSUT2 KO mice; test: Kainic acid induced gliosis in mice; format: in vivo, mouse; conditions: hippocampi 3 days after single 25 mg/kg i.p.
# Procedure: Shown are the hippocampi of wild type or MSUT2 KO mice 3 days after KA treatment (a single dose of 25 mg/kg KA administered i.p.). […] Scale bar=500 μm.
# [3] = molecular target: biotinylated poly(A)15 RNA; test: Surface plasmon resonance (Biacore) binding to poly(A) RNA; conditions: poly(A)15, five protein concentrations 1-0.6 μM
# Procedure: Surface plasmon pesonance. SPR experiments were conducted on a Biacore T200 using the Biotin Capture Kit Series S following the manufacturer's instructions (GE). Biotin capture reagent was applied to the sensor chip at a flow rate of 2 μl/minute for 300 seconds. 1 nM biotinylated RNA (BiotinTEG-AAAAAAAAAAAAAAA; SEQ ID NO: 25) was captured at a flow rate of 10 μl/minute for 180 seconds. Samples were flowed across the sensor chip at 50 μl/minute for 120 seconds and the chip was regenerated for 120 seconds at a flow rate of 10 μl/minute. KD values for binding and disassociation were calculated from the binding kinetics of each protein at five concentrations using the Biacore T200 Software v3.1 application package (GE; 1, 0.9, 0.8, 0.7, 0.6 μM).
Molecule,IC50 [1],Kd [3],other results
"O=S(=O)(O)c1cc(N=C=S)ccc1C=Cc1ccc(N=C=S)cc1S(=O)(=O)O [4,4′-Diisothiocyano-stilbene-2,2′ sulfonic acid]",6800 nM,–,–
O=c1c2ccccc2[se]n1-c1ccccc1 [Ebselen],1600 nM,–,–
C=C(C)[C@H]1CN[C@H](C(=O)O)[C@H]1CC(=O)O [Kainic Acid],–,–,"gliotic response (astrocytosis, IHC for GFAP) [2]: obvious and strong gliotic response"
COc1cc2c(cc1OC)-c1cc3ccc(OC)c(OC)c3c[n+]1CC2 [Palmatine],1700 nM,–,–
B1,–,237 ± 21 nM,–
B2,–,60 ± 15 nM,–
